Data on 28 compounds can be found in patent publication US20050234041A1, “Substituted 1-benzazepines and derivatives thereof” (priority 2001, published 2005).

One series has as its system Campylobacter jejuni. In words: MIC, broth dilution method, Campylobacter jejuni. The note with it: for MIC: Campylobacter jejuni. The series is classed as cell-based. The source says: (§1) Antibacterial activity can be determined by several standard methods well known by those skilled in the art, including disc diffusions methods, broth dilution minimal inhibitory concentration (MIC) methods, etc., including the detailed method outlined below and as defined by the National Committee of Clinical Laboratory Standards in the United States.
(§2) MIC, Broth Dilution Method
(§3) Cultures of bacteria are initially brought up from the freezer stocks onto chocolate agar plates by streaking a loop-full, then incubated for 18 hours at 35-37° C. in a 5% CO2 incubator.
(§4) Five to 10 colonies are picked from the chocolate agar plate for subculture to Brain-Heart Infusion (BHI) broth or Mueller Hinton broth or BHI containing 4% serum and incubated as described.
(§5) Evaluate the optical density of the organisms in the wells of a 96 well microtiter plate with and without the test compound. The optical density of the organisms in the presence of an active compound will be less than the optical density of the same organism untreated. The activity of the compounds is described as either negative or the lowest concentration inhibiting growth. The results are depicted in Table III, where +/− represents the least activity and ++++ represents the greatest activity. In Table IV, the results are depicted where MIC represents the lowest concentration of antibiotic that inhibits bacterial growth.

In the next series the test system is Helicobacter pylori. Nature of the series: MIC, broth dilution method, Helicobacter pylori. The note with it: for MIC: Helicobacter pylori. Format: cell-based.
Excerpt: as §1, §2, §3, §4, §5

Another series has as its system bacteria. Nature of the series: Antibacterial activity, broth dilution (Table III). Format: cell-based. The note with it: graded activity, organism not given.
Excerpt: as §1, §2, §3, §4, §5

Where [1] appears, read: Table IV, MIC, lowest concentration that inhibits bacterial growth, read-out: Antibacterial Activity (micrograms/ml) Campylobacter jejuni.
Setting [2] is: Table IV, MIC, lowest concentration that inhibits bacterial growth, read-out: Antibacterial Activity (micrograms/ml) Helicobacter pylori.
[3] abbreviates: Table IV, MIC, lowest concentration that inhibits bacterial growth.
The mark [4] stands for this setting: Table V, read-out: MIC (μg/mL) C. jejuni.
Setting [5] is: Table V, read-out: MIC (μg/mL) H. pylori.

Molecules are shown by their SMILES. Converted amounts (≈) assume the structure as drawn. Like-named read-outs stand apart in the source and are kept apart here. A value given as a limit tells only on which side of the number the result lay.

The compound `CCOC(=O)C1CCc2ccc(OC)cc2NC1=O` (racemic) [Example 3, 3(R,S)-Ethoxycarbonyl-8-methoxy-2,3,4,5-tetrahydro-1H-1-benzazepine-2-one] displayed a melting point of 89 to 91 °C. Besides, the MIC with Campylobacter jejuni (setting [1]) came to 100 µg/mL (≈ 380 µM). Moreover, in the series with Helicobacter pylori (setting [2]), the MIC lay within 50 to 100 µg/mL (≈ 190 to 380 µM).

As for `CCN1C(=O)C(C(=O)O)CCc2ccc(OC)cc21` (racemic) [Example 5, 3(R,S)-Carboxyl-1-ethyl-8-methoxy-2,3,4,5-tetrahydro-1H-1-benzazepine-2-one], the melting point lay within 120 to 121 °C. Also, the MIC with Campylobacter jejuni (setting [1]) is over 200 µg/mL. Further, in the series on Helicobacter pylori (setting [2]), the MIC was found to be 100 µg/mL (≈ 380 µM).

`COc1ccc2c(c1)NC(=O)C(C(=O)OC(C)(C)C)CC2` (racemic) [Example 11, 3(R,S)-tert-Butoxycarbonyl-8-methoxy-2,3,4,5-tetrahydro-1 H-1-benzazepine-2-one] yielded a melting point of 145 to 147 °C. The MIC with Campylobacter jejuni (setting [1]) was 100 to 200 µg/mL (≈ 343 to 686 µM). In the series on Helicobacter pylori (setting [2]), the MIC stood at 50 µg/mL (≈ 172 µM).

As for `CCN1C(=O)C(C(=O)OC(C)(C)C)CCc2ccc(OC)cc21` (racemic) [Example 12, 3(R,S)-tert-Butoxycarbonyl-1-ethyl-8-methoxy-2,3,4,5-tetrahydro-1H-1-benzazepine-2-one], the melting point was 132 to 133 °C. In addition, the MIC with Campylobacter jejuni (setting [1]) was over 200 µg/mL. The MIC with Helicobacter pylori (setting [2]) is 50 µg/mL (≈ 157 µM).

With `CCN1C(=O)C(C(=O)OC(C)(C)C)CCc2cc(Br)c(OC)cc21` (racemic) [Example 13, 7-Bromo-3(R,S)-tert-butoxycarbonyl-1-ethyl-8-methoxy-2,3,4,5-tetrahydro-1H-1-benzazepine-2-one], the melting point was in the range of 131 to 132 °C. Besides, the MIC with Campylobacter jejuni (setting [1]) is over 200 µg/mL. Further, the MIC in the series with Helicobacter pylori (setting [2]) fell in the range of 6.25 to 12.5 µg/mL (≈ 15.7 to 31.4 µM).

With `CCN1C(=O)C(C(=O)OC(C)(C)C)CCc2cc(N3CCNCC3)c(OC)cc21` (racemic) [Example 18, 3(R,S)-tert-Butoxycarbonyl-1-ethyl-8-methoxy-7-(piperazin-1-yl)-2,3,4,5-tetrahydro-1H-1-benzazepine-2-one], the melting point is 165 °C (dec.). Further, in the series on Campylobacter jejuni (setting [1]), the MIC is over 200 µg/mL. In addition, the MIC in the series on Helicobacter pylori (setting [2]) came to 50 µg/mL (≈ 124 µM).

Regarding `COc1ccc2c(c1)N(C(=O)OC(C)(C)C)C(=O)C(C(=O)OC(C)(C)C)CC2` (racemic) [Example 23, 1-tert-Butoxycarbonyl-3(R,S)-tert-butoxycarbonyl-8-methoxy-2,3,4,5-tetrahydro-1H -benzazepine-2-one], the melting point lay within 91 to 92 °C. For the same compound, the MIC in the series with Campylobacter jejuni (setting [1]) is 200 µg/mL (≈ 511 µM). The MIC with Helicobacter pylori (setting [2]) stood at 50 µg/mL (≈ 128 µM).

`CCN1C(=O)C(C(=O)NC(C)(C)C)CCc2cc(Br)c(OC)cc21` (racemic) [Example 29, 7-bromo-3(R,S)-N-(tert-butyl)aminocarbonyl-1-ethyl-8-methoxy-2,3,4,5-tetrahydro-1H-1-benzazepine-2-one]: the “Antibacterial Activity” value with bacteria is recorded as “−”. In addition, the MIC in the series on Campylobacter jejuni (setting [1]) and in the series with Helicobacter pylori (setting [2]) was over 200 µg/mL throughout.

Regarding `COc1cc2c(cc1N1CCN(C(=O)OCc3ccccc3)CC1)CCC(C(=O)OC(C)(C)C)C(=O)N2Cc1cccc(F)c1` (racemic) [Example 31, 7-[(4-Benzyloxycarbonyl)piperazin-1-yl]-3(R,S)-tert-butoxycarbonyl-1-(3-fluorobenzyl)-8-methoxy-2,3,4,5-tetrahydro-1 H-1-benzazepine-2-one], the “Antibacterial Activity” value in the series on bacteria was “++++”. For the same compound, in the series with Campylobacter jejuni (setting [3]), the “Antibacterial Activity (micrograms/ml) Campylobacter jejuni” value was over 200 micrograms/ml. Further, the “Antibacterial Activity (micrograms/ml) Helicobacter pylori” value in the series on Helicobacter pylori (setting [3]) is given as 0.78 micrograms/ml.

Consider `CCN1C(=O)C(C(=O)OC(C)(C)C)CCc2ccc(O)cc21` (racemic) [Example 178, 3(R,S)-tert-Butoxycarbonyl-1-ethyl-8-hydroxy-2,3,4,5-tetrahydro-1H-1-benzazepine-2-one], for which the melting point fell in the range of 154 to 156 °C. In addition, the MIC with Campylobacter jejuni (setting [4]) is over 200 µg/mL. For the same compound, the MIC in the series on Helicobacter pylori (setting [5]) was 16 µg/mL (≈ 52.4 µM).

On to `COc1cc2c(cc1[N+](=O)[O-])CCC(C(=O)OC(C)(C)C)C(=O)N2C(=O)OC(C)(C)C` (racemic) [Example 195, 1,3(R,S)-Di(tert-butoxycarbonyl)-8-methoxy-7-nitro-2,3,4,5-tetrahydro-1H-1-benzazepine-2-one], for which the melting point was 142 to 144 °C (dec.). For the same compound, in the series with Campylobacter jejuni (setting [4]), the MIC stood at 60 µg/mL (≈ 137 µM). For the same compound, the MIC with Helicobacter pylori (setting [5]) was determined as 4 µg/mL (≈ 9.16 µM).

Consider `CC(C)(C)OC(=O)C1CCc2cc([N+](=O)[O-])c(O)cc2NC1=O` (racemic) [Example 220, 3(R,S)-tert-Butoxycarbonyl-8-hydroxyl-7-nitro-2,3,4,5-tetrahydro-1H-1-benzazepine-2-one], for which the melting point is 189 to 191 °C (dec.). The MIC in the series on Campylobacter jejuni (setting [4]) is 250 µg/mL (≈ 776 µM). Besides, the MIC in the series on Helicobacter pylori (setting [5]) was 8 µg/mL (≈ 24.8 µM).

In the case of `COc1ccc2c(c1)NC(=O)CCC2` [Example 2, 8-Methoxy-2,3,4,5-tetrahydro-1H-1-benzazepine-2-one], the melting point is 105 to 106 °C. Besides, in the series with Campylobacter jejuni (setting [1]), the MIC was determined as 50 µg/mL (≈ 261 µM). Moreover, the MIC with Helicobacter pylori (setting [2]) is over 200 µg/mL.

The compound `CCN1C(=O)CCCc2cc(Br)c(OC)cc21` [Example 9, 7-Bromo-1-ethyl-8-methoxy-2,3,4,5-tetrahydro-1H-1-benzazepine-2-one] gave a melting point of 133 to 135 °C. In addition, the MIC in the series on Campylobacter jejuni (setting [1]) is over 200 µg/mL. In the series with Helicobacter pylori (setting [2]), the MIC came to 100 µg/mL (≈ 335 µM).

On to `COc1cc2c(cc1Br)CCCC(=O)N2` [Example 24, 7-Bromo-8-methoxy-2,3,4,5-tetrahydro-1H-1-benzazepine-2-one], for which the melting point was 180 to 182 °C. In the series with Campylobacter jejuni (setting [1]), the MIC is over 200 µg/mL. In the series with Helicobacter pylori (setting [2]), the MIC was 100 µg/mL (≈ 370 µM).

In the case of `O=C1CCCc2cc([N+](=O)[O-])c(O)cc2N1` [Example 175, 8-Hydroxy-7-nitro-2,3,4,5-tetrahydro-1 H-1-benzazepine-2-one], the melting point was in the range of 239 to 240 °C. Further, the MIC in the series on Campylobacter jejuni (setting [1]) worked out at 30 µg/mL (≈ 135 µM). Moreover, in the series with Campylobacter jejuni (setting [4]), the MIC stood at 30 µg/mL (≈ 135 µM). Further, in the series on Helicobacter pylori (setting [2]), the MIC is 1 µg/mL (≈ 4.5 µM). Besides, the MIC in the series with Helicobacter pylori (setting [5]) amounted to 1 µg/mL (≈ 4.5 µM).

In the case of `O=C1CCCc2ccc([N+](=O)[O-])cc2N1` [Example 181, 8-Nitro-2,3,4,5-tetrahydro-1H-1-benzazepine-2-one], the MIC worked out at 125 µg/mL (≈ 606 µM) in the series with Campylobacter jejuni (setting [4]) and 250 µg/mL (≈ 1210 µM) in the series on Helicobacter pylori (setting [5]).

Take `CCN1C(=O)CCCc2ccc([N+](=O)[O-])cc21` [Example 182, 8-Nitro-1-ethyl-2,3,4,5-tetrahydro-1H-1-benzazepine-2-one]: the results for the MIC in the series on Campylobacter jejuni (setting [4]) and in the series with Helicobacter pylori (setting [5]) were 8 µg/mL (≈ 34.2 µM) and 16 µg/mL (≈ 68.3 µM), respectively.

Turning to `COc1ccc2c(c1)CCCC(=O)N2` [Example 185, 7-Methoxy-2,3,4,5-tetrahydro-1H-1-benzazepine-2-one], the results for the MIC in the series on Campylobacter jejuni (setting [4]) and in the series on Helicobacter pylori (setting [5]) were 32 µg/mL (≈ 167 µM) and 125 µg/mL (≈ 654 µM), respectively.

As to `COc1cccc2c1CCCC(=O)N2` [Example 186, 6-Methoxy-2,3,4,5-tetrahydro-1 H-1-benzazepine-2-one], the figures for the MIC in the series with Campylobacter jejuni (setting [4]) and in the series with Helicobacter pylori (setting [5]) were over 250 µg/mL and 64 µg/mL (≈ 335 µM), respectively.

`O=C1CCCc2ccccc2N1` [Example 187, 2,3,4,5-tetrahydro-1H-1-benzazepine-2-one]: the results for the MIC in the series with Campylobacter jejuni (setting [4]) and in the series on Helicobacter pylori (setting [5]) were over 250 µg/mL and 64 µg/mL (≈ 397 µM), respectively.

With `O=C1CCCc2c(O)cccc2N1` [Example 188, 6-Hydroxy-2,3,4,5-tetrahydro-1H-1-benzazepine-2-one], the values for the MIC in the series on Campylobacter jejuni (setting [4]) and in the series on Helicobacter pylori (setting [5]) were over 250 µg/mL and 32 µg/mL (≈ 181 µM), respectively.

For `O=C1CCCc2cc(O)ccc2N1` [Example 189, 7-Hydroxy-2,3,4,5-tetrahydro-H-1-benzazepine-2-one], the MIC with Campylobacter jejuni (setting [4]) was over 250 µg/mL; in the series on Helicobacter pylori (setting [5]), 125 µg/mL (≈ 705 µM).

In the case of `CCN1C(=O)CCCc2ccc(N)cc21` [Example 190, 8-Amino-1-ethyl-2,3,4,5-tetrahydro-1H-1-benzazepine-2-one], the MIC worked out at 250 µg/mL (≈ 1220 µM) with Campylobacter jejuni (setting [4]) and 64 µg/mL (≈ 313 µM) with Helicobacter pylori (setting [5]).

`CCN1C(=O)CCCc2ccc(Br)cc21` [Example 191, 8-Bromo-1-ethyl-2,3,4,5-tetrahydro-1H-1-benzazepine-2-one]: the results for the MIC with Campylobacter jejuni (setting [4]) and in the series on Helicobacter pylori (setting [5]) were 8 µg/mL (≈ 29.8 µM) and 16 µg/mL (≈ 59.7 µM), respectively.

Compound `COc1ccc2c(c1)NC(=O)C(C(=O)NOCc1ccccc1)CC2` (stereo not drawn) [Example 193, 3-Benzyloxyaminocarbonyl-8-methoxy-2,3,4,5-tetrahydro-1H-1-benzazepine-2-one] showed a melting point of 162 to 164 °C. For the same compound, the MIC in the series on Campylobacter jejuni (setting [4]) is over 250 µg/mL. Also, in the series on Helicobacter pylori (setting [5]), the MIC is 4 µg/mL (≈ 11.8 µM).

With `COc1ccc2c(c1)NC(=O)C(C(=O)NO)CC2` (stereo not drawn) [Example 197, 3-Hydoxyaminocarbonyl-8-methoxy-2,3,4,5-tetrahydro-1H-1-benzazepine-2-one], the MIC was over 250 µg/mL in the series with Campylobacter jejuni (setting [4]) and 125 µg/mL (≈ 499 µM) in the series on Helicobacter pylori (setting [5]).

Take `COc1cc2c(cc1[N+](=O)[O-])CCC(C(=O)OC(C)(C)C)C(=O)N2CCOC1CCCCO1` [Example 224, 3(R,S)-tert-Butoxycarbonyl-8-methoxy-7-nitro-1-[2-(tetrahydro-2H-pyran-2-yloxy)]ethyl-2,3,4,5-tetrahydro-1H-1-benzazepine-2-one]: the “MIC (μg/mL) C. jejuni” value in the series with Campylobacter jejuni (Table V) is on record as >250, μg/mL. Besides, the “MIC (μg/mL) H. pylori” value in the series with Helicobacter pylori (Table V) turned out to be 60 µg/mL (≈ 129 µM).
